Measured values: article PMC3203607 (Nucleic Acids Research, 2011)

Tests used:
Format in all cases: binding
Ascaris eIF4E-3 [1] = biological target: T1, Ascaris eIF4E-3 (Ascaris suum, UniProt Q6PKX2); assay: isothermal titration calorimetry; details: 20 mM HEPES pH 7.4, 1 mM EDTA, 100 mM KCl, 20 °C; single-site model
T1 sequence (Q6PKX2 1-236): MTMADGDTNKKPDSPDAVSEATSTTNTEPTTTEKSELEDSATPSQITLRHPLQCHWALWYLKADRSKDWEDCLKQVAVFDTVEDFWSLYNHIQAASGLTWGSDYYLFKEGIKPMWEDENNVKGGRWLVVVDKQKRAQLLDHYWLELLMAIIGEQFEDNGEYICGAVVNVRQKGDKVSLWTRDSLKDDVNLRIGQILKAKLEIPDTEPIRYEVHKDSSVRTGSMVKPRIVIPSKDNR

Ascaris eIF4E-3 (49–236) = biological target: T2, Ascaris eIF4E-3 (49–236) (Ascaris suum, UniProt Q6PKX2); assay: isothermal titration calorimetry
T2 sequence (Q6PKX2 49-236): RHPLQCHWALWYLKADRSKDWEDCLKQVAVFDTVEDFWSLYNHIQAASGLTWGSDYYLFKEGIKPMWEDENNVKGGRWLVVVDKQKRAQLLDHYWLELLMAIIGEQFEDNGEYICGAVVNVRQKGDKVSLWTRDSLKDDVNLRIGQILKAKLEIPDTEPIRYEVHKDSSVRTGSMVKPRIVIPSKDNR

Ascaris eIF4E-3 [2] = biological target: T3, Ascaris eIF4E-3 (Ascaris suum, UniProt Q6PKX2, E116D); assay: isothermal titration calorimetry; details: 20 mM HEPES pH 7.4, 1 mM EDTA, 100 mM KCl, 20 °C
T3 sequence (Q6PKX2 1-236 E116D): T1 sequence (Q6PKX2 1-236)

Ascaris eIF4E-3 [3] = biological target: T1, Ascaris eIF4E-3; assay: fluorescence titration; details: read-out: KD (μM) / Ascaris eIF4E-3; 50 mM HEPES/KOH pH 7.20, 200 mM KCl, 1 mM DTT, 0.5 mM EDTA, 20 °C
Human eIF4E (28–217) = Human eIF4E (28–217) (Homo sapiens, UniProt P06730); assay: fluorescence titration
Sequence of Human eIF4E (28–217) (P06730 28-217): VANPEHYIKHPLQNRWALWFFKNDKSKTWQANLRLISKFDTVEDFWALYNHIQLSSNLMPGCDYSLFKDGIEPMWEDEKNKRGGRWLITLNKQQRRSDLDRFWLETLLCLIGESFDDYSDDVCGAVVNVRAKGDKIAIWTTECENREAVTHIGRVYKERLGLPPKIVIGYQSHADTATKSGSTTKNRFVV

Human eIF4E = Human eIF4E (Homo sapiens, UniProt P06730); assay: isothermal titration calorimetry
Sequence of Human eIF4E (P06730 whole entry): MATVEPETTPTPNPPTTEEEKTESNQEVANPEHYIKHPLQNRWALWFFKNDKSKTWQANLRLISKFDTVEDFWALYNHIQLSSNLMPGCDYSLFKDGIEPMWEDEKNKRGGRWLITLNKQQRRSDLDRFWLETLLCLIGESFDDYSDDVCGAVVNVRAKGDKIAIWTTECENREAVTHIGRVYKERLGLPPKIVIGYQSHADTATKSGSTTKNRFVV

Row | Compound | Kd (Ascaris eIF4E-3 [3]) | Kd (Human eIF4E (28–217)) | Kd (Ascaris eIF4E-3 [1]) | Kd (Ascaris eIF4E-3 (49–236)) | Kd (Ascaris eIF4E-3 [2]) | Kd (Human eIF4E)
1 | C[n+]1cn([C@@H]2O[C@H](COP(=O)(O)OP(=O)(O)OP(=O)(O)O)[C@@H](O)[C@H]2O)c2nc(N)[nH]c(=O)c21 [m^7GTP] | – | – | 0.24 ± 0.04 µM | 0.17 ± 0.05 µM | 1.98 ± 0.2 µM | –
2 | CN(C)c1nc2c(c(=O)[nH]1)[n+](C)cn2[C@@H]1O[C@H](COP(=O)(O)OP(=O)(O)OP(=O)(O)OC[C@H]2O[C@@H](n3cnc4c(=O)[nH]c(N)nc43)[C@H](O)[C@@H]2O)[C@@H](O)[C@H]1O [m^2,2,7GpppG] | – | 3.1 ± 1.1 µM | – | – | – | –
3 | CN(C)c1nc2c(c(=O)[nH]1)[n+](C)cn2[C@@H]1O[C@H](COP(=O)(O)OP(=O)(O)OP(=O)(O)O)[C@@H](O)[C@H]1O [m^2,2,7GTP] | – | – | 8.4 ± 1 µM | 12.2 ± 3.9 µM | 7 ± 0.1 µM | 4.56 ± 2.1 µM

Continued, in another order:

Row | Kd (Ascaris eIF4E-3 [3]) | Kd (Human eIF4E (28–217)) | Compound | Kd (Ascaris eIF4E-3 [1]) | Kd (Ascaris eIF4E-3 (49–236)) | Kd (Ascaris eIF4E-3 [2]) | Kd (Human eIF4E)
4 | 0.787 ± 0.025 µM | – | C[n+]1cn([C@@H]2O[C@H](COP(=O)(O)OP(=O)(O)OP(=O)(O)OC[C@H]3O[C@@H](n4cnc5c(=O)[nH]c(N)nc54)[C@H](O)[C@@H]3O)[C@@H](O)[C@H]2O)c2nc(N)[nH]c(=O)c21 [m^7GpppG] | – | 0.75 ± 0.19 µM | – | –
5 | 83 ± 14 µM | – | Nc1nc2c(ncn2[C@@H]2O[C@H](COP(=O)(O)OP(=O)(O)OP(=O)(O)O)[C@@H](O)[C@H]2O)c(=O)[nH]1 [GTP] | – | – | – | –
